Legend:
[1] = test system: PLP injected animals (acute EAE, model for MS); assay: Acute EAE induced with PLP 139-151, clinical signs scoring; type: in vivo, SJL female mice
PC12 neurons = assay: MPP+ toxicity experiment, LDH leakage assay in NGF-differentiated PC12 cells; type: cell-based
Experimental: PC12 cells were grown in Dulbecco's modified Eagle's medium (DMEM), supplemented with 7% fetal calf serum, 7% horse serum, 100 μg/ml streptomycin, and 100 U/ml penicillin. The cultures were maintained in an incubator at 37° C. in a humidified atmosphere of 6% CO2. The growth medium was changed twice weekly and the cultures were split at 1:6 ratio once a week [Abu-Raya et al. J. Neurosci. Methods 50:197-203 (1993)].
For differentiation, an identical number of PC12 cells (3.75×10^5 cells) was plated on 6-wells plates coated with rat tail type I collagen (0.1 mg/ml) to promote cell adhesion [Abu-Raya et al Rasagiline, a monoamine oxidase-B inhibitor, protects NGF-differentiated PC12 cells against oxygen-glucose deprivation. J. Neurosci. Res. 58:456-463 (1999)]. The differentiation of the cultures was induced by treatment with NGF (50 ng/ml), added every 48 hr for a period of 7-8 days.
Cell death was evaluated by measuring the leakage of LDH into the growth medium as previously described [Abu-Raya et al. J. Neurosci. Res. 58:456-463, (1999)]. Samples of 50 μl of the growth medium were collected from each well and centrifuged at 3,500 rpm for 5 min at 25° C.; the supernatant was collected and LDH release was measured using a TRACE LD-L reagent. LDH activity was determined using an ELISA reader (TECAN, SPECTRAFluor PLUS, Grodig, Salzburg, Austria) at 340 nm by following the rate of conversion of oxidized nicotinamide adenine dinucleotide (NAD^+) to the reduced form of (NADH). MPP^+-induced LDH release was expressed as 100% of toxicity compared to control-untreated cultures. Each experiment was performed three times in duplicates (n=6).
On the day of the experiment, the NGF containing medium was replaced with fresh one. […]
MPP^+ was dissolved in growth medium containing NGF and added to each well in a final concentration of 1500 μM. […] The experiment was accomplished when percentage of cell death was in the range 30-60%, measured by the release of LDH into the medium. […]

CC1(C)CC(N)CC(C)(C)N1[O] [TMN, 2,2,6,6-tetramethylpiperidine-4-amino-1-oxyl]
effect on clinical signs of MS, in words ([1]; SSL-TMN i.v., 80 nm, compared with Copaxone, Betaferon, empty SSL, free TMN, FIG. 2): no observed effect against the disease
#dead ([1]; Table 4B): 1
MDD ([1]; Table 4B): 19 ± 1.2
MDO ([1]; Table 4B): 14 ± 0.5
MMS ([1]; Table 4B): 3.9 ± 0.53
Mean score ([1]; Table 4B): 3.5 ± 0.21
Incidence ([1]; Table 4B, free TMN at same concentration as encapsulated in the liposomes): 5/5
toxicity to the cells at higher concentration (bell shape) (PC12 neurons; 500 μM-1000 μM TMN): toxic to the cells
protection of PC12 neurons from oxidative damage inflicted by MPP+ (LDH release) (PC12 neurons; 1500 μM MPP+, TMN 0.1-100 μM added 1 hr before, LDH after 48 hr, FIG. 1): protects PC12 neurons from oxidative damage
most effective TMN concentration for protection against MPP+ (PC12 neurons; 1500 μM MPP+, dose response 0.1-1000 μM): 100 µM
